Measured values taken from the supplement of paper PMC10307832.

How the values were obtained:
Assay in all cases: relative viability (nuclei count vs DMSO), 5 days (fraction); higher = more cells survive
[1] = compound: C#Cc1cccc(Nc2ncnc3cc(OC)c(OCCCCCCC(=O)NO)cc23)c1 [CUDC-101] + CCNC(=O)c1noc(-c2cc(C(C)C)c(O)cc2O)c1-c1ccc(CN2CCOCC2)cc1 [Luminespib] (partner 0.01 µM)
Procedure, shortened: (§1)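 Five library-drug doses in √10 steps were combined with a fixed anchor-drug dose, or a single drug was given alone, by pin tool to lung cancer cell lines in 1536-well plates the day after seeding. Nuclei were stained and counted after 5 days. Relative viability is the nuclei count in treated wells over that in vehicle wells, taken as the median of duplicate plates.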

[2] = compound: C1=CC=C2C(=C1)N=C(S2)C(C#N)C3=NC(=NC=C3)NCCC4=CN=CC=C4 + CS(=O)(=O)N1CCN(Cc2cc3nc(-c4cccc5[nH]ncc45)nc(N4CCOCC4)c3s2)CC1 [Pictilisib] (partner 1 µM)
Procedure, shortened: as §1

[3] = compound: COc1cc(N2CCC(N3CCN(C)CC3)CC2)ccc1Nc1ncc(Cl)c(Nc2ccccc2S(=O)(=O)C(C)C)n1 [NVP-TAE684] + Nc1nc2[nH]cc(CCc3ccc(C(=O)N[C@@H](CCC(=O)O)C(=O)O)cc3)c2c(=O)[nH]1 [Pemetrexed] (partner 0.2 µM)
Procedure, shortened: as §1

[4] = compound: C1=CC=C2C(=C1)N=C(S2)C(C#N)C3=NC(=NC=C3)NCCC4=CN=CC=C4 + NC(=O)Nc1cc(-c2cccc(F)c2)sc1C(=O)N[C@H]1CCCNC1 [AZD7762] (partner 0.2 µM)
Procedure, shortened: as §1

Cell Line | relative viability ([1]; first compound 0.01 µM) | relative viability ([1]; first compound 0.03162 µM) | relative viability ([1]; first compound 0.1 µM) | relative viability ([1]; first compound 0.3162 µM) | relative viability ([1]; first compound 1 µM) | relative viability ([2]; first compound 0.005 µM) | relative viability ([2]; first compound 0.01581 µM) | relative viability ([2]; first compound 0.05 µM) | relative viability ([2]; first compound 0.1581 µM) | relative viability ([2]; first compound 0.5 µM) | relative viability ([3]; first compound 0.2 µM) | relative viability ([3]; first compound 2 µM) | relative viability ([4]; first compound 0.005 µM) | relative viability ([4]; first compound 0.01581 µM) | relative viability ([4]; first compound 0.05 µM) | relative viability ([4]; first compound 0.1581 µM) | relative viability ([4]; first compound 0.5 µM) | relative viability ([3]; first compound 0.6325 µM)
HCC-44 | 0.947 | 0.909 | 1.03 | 1.03 | 1.06 | 0.445 | 0.509 | 0.595 | 0.856 | 0.593 | 0.652 | 0.606 | 1.12 | 0.984 | 1.01 | 0.997 | 0.998 | 
EKVX | 0.916 | 0.677 | 0.749 | 0.982 | 0.81 | 0.497 | 0.422 | 0.45 | 0.479 | 0.457 | 0.376 | 0.254 | 0.704 | 0.777 | 0.682 | 0.85 | 0.604 | 0.337
NCI-H23 | 0.197 | 0.204 | 0.209 | 0.207 | 0.197 |  | 0.464 | 0.455 | 0.508 | 0.511 | 0.719 | 0.395 |  | 0.239 | 0.254 | 0.175 | 0.249 | 0.556
NCI-H2347 | 0.617 | 0.458 | 0.47 | 0.415 | 0.331 | 0.474 | 0.695 | 0.659 | 0.756 | 0.609 | 0.431 | 0.406 | 0.782 | 0.815 | 0.716 | 0.839 | 0.729 | 0.38
SK-LU-1 | 0.188 | 0.203 | 0.213 | 0.206 | 0.216 |  | 0.643 | 0.6 | 0.651 | 0.552 | 0.826 | 0.575 |  |  |  |  |  | 1
